Data published in patent US20080033056A1 (Metaproteomics, LLC, priority 2006, published 2008).
Marks after values point to notes of the source that are not given here.

Assays:
[1] = test system: LPS-stimulated 3T3-L1 adipocytes; assay: IL-6 secretion in LPS/3T3-L1 adipocytes; assay type: cell-based, murine; conditions: at the concentration of maximum inhibition, 100 ng LPS/ml, D5 3T3-L1; for IL-6 Index: indexed to LPS control
[2] = test system: LPS-treated 3T3-L1 adipocytes; assay: Adiponectin secretion in LPS/3T3-L1 adipocytes; assay type: cell-based, murine; conditions: for adiponectin secretion: any dose tested; for % Stimulation of adiponectin secretion (maximum): at the concentration of maximum stimulation, NS = not significantly different from the LPS control
[3] = test system: TNFα-treated 3T3-L1 adipocytes; assay: Adiponectin secretion from TNFα-treated 3T3-L1 adipocytes; assay type: cell-based, murine; conditions: 10 ng TNFα/ml
Experimental: For two days, the cells were allowed grow to reach confluence. […] (3) 0.5 μM dexamethasone and (4) 10 μg/ml insulin (MDI medium). […] Adiponectin Assay—The adiponectin secreted into the medium was quantified using the Mouse Adiponectin Quantikine® Immunoassay kit with no modifications (R&D Systems, Minneapolis, Minn.). […] Statistical Calculations and Interpretation—All assays were preformed in duplicate. […] Differences among the doses and test agents were determined using the Student's t-test without correction for multiple comparisons; the nominal five percent probability of a type I error was selected.

[4] = test system: 3T3-L1 adipocytes; assay: Lipogenesis in 3T3-L1 adipocytes (Oil Red O / BODIPY); assay type: cell-based, murine; conditions: relative to controls
Experimental: Prior to experiments, cells were cultured in DMEM containing 10% FBS-HI added 50 units penicillin/ml and 50 μg streptomycin/ml, and maintained in log phase prior to experimental setup. Cells were grown in a 5% CO2 humidified incubator at 37° C. Components of the pre-confluent medium included (1) 10% FBS/DMEM containing 4.5 g glucose/L; (2) 50 U/ml penicillin; and (3) 50 μg/ml streptomycin. Growth medium was made by adding 50 ml of heat inactivated FBS and 5 ml of penicillin/streptomycin to 500 ml DMEM. This medium was stored at 4° C. Before use, the medium was warmed to 37° C. in a water bath.
3T3-T1 cells were seeded at an initial density of 6×10^4 cells/cm^2 in 24-well plates. For two days, the cells were allowed grow to reach confluence. Following confluence, the cells were forced to differentiate into adipocytes by the addition of differentiation medium; this medium consisted of (1) 10% FBS/DMEM (high glucose); (2) 0.5 mM methylisobutylxanthine; (3) 0.5 μM dexamethasone and (4) 10 μg/ml insulin (MDI medium). After three days, the medium was changed to post-differentiation medium consisting of 10 μg/ml insulin in 10% FBS/DMEM.
AcE was partially dissolved in dimethyl sulfoxide (DMSO) and added to the culture medium to achieve a concentration of 50 μg/ml at Day 0 of differentiation and throughout the maturation phase (Days 6 or 7 (D6/7)). Whenever fresh media were added, fresh test material was also added. DMSO was chosen for its polarity and the fact that it is miscible with the aqueous cell culture media.
Oil Red O Staining—Triglyceride content of D6/D7-differentiated 3T3-L1 cells was estimated with Oil Red O according to the method of Kasturi and Joshi [Kasturi, R. and Joshi, V. C. […] Monolayer cells were washed with PBS (phosphate buffered saline, Mediatech) and fixed with 10% formaldehyde for ten minutes. Fixed cells were stained with an Oil Red O working solution of three parts 0.6% Oil Red O/isopropanol stock solution and two parts water for one hour and the excess stain was washed once with water. The resulting stained oil droplets were extracted from the cells with isopropanol and quantified by spectrophotometric analysis at 540 nm (MEL312e BIO-KINETICS READER, Bio-Tek Instruments, Winooski, Vt.).
Briefly, media were removed and cells were washed once with non-sterile PBS. A stock 1000× BODIPY/DMSO solution was made by dissolving 1 mg BODIPY in 1 ml DMSO (1,000 μg BODIPY/ml). […] After 15 min on an orbital shaker (DS-500, VWR Scientific Products, South Plainfield, N.J.) at ambient temperature, the cells were washed with 100 μl PBS followed by the addition of 100 μl PBS for reading for spectrofluorometric determination of BODIPY incorporation into the cells. […]

[5] = test system: DBA/J mice; assay: Collagen induced rheumatoid arthritis murine model (arthritic index, histology, serum IL-6); assay type: in vivo, mouse; conditions: 10 mg/kg
[6] = test system: insulin-resistant 3T3-L1 adipocytes; assay: IL-6 secretion from insulin-resistant 3T3-L1 adipocytes; assay type: cell-based, murine
Experimental: Statistical Calculations and Interpretation—All assays were preformed in duplicate. For statistical analysis, the effect of hops derivatives on adiponectin or IL-6 secretion was computed relative to the solvent control. Differences among the doses were determined using analysis of variance without correction for multiple comparisons; the nominal five percent probability of a type I error was selected.

[7] = test system: db/db mice; assay: Non-fasting serum glucose and insulin in db/db diabetic mice; assay type: in vivo, mouse; conditions: three daily doses
Experimental: The Model—Male, C57BLKS/J m^+/m^+Lepr^db (db/db) mice were used to assess the potential of the test materials to reduce fasting serum glucose or insulin concentrations. This strain of mice is resistant to leptin by virtue of the absence of a functioning leptin receptor.
Testing Procedure—Test substances were administered daily by gavage in 0.2% Tween-80. Serum was collected from the retroorbital sinus before the initial dose and ninety minutes after the third and final dose. Non-fasting serum glucose was determined enzymatically by the mutarotase/glucose oxidase method and serum insulin was determined by a mouse specific ELISA.
The Model—Male, C57BLKS/J m+/m+Leprdb (db/db) mice were used to assess the potential of the test materials to reduce fasting serum glucose or insulin concentrations. This strain of mice is resistant to leptin by virtue of the absence of a functioning leptin receptor.
Testing Procedure—Test substances were administered daily by gavage in 0.2% Tween-80. […] Non-fasting serum glucose was determined enzymatically by the mutarotase/glucose oxidase method and serum insulin was determined by a mouse specific ELISA.

[8] = test system: insulin-resistant 3T3-L1 adipocytes; assay: Adiponectin secretion from insulin-resistant 3T3-L1 adipocytes; assay type: cell-based, murine; conditions: 50.0 μg/ml; ratio of Adiponectin Index to IL-6 Index (Table 21)
[9] = test system: A549 pulmonary epithelial cells; assay: PGE2 biosynthesis in A549 cells stimulated by mite dust allergen; assay type: cell-based, human; conditions: 10 μg/ml
Experimental: The filtrate was termed mite dust allergen and used to test for induction of PGE2 biosynthesis in A549 pulmonary epithelial cells.
Mite allergen was added to the culture medium to achieve a final concentration of 1000 ng/ml. Eighteen hours later, the media were sampled for PGE2 determination.

O=C(O)c1ccccc1O [salicylic acid]
IL-6 Index [1]: 0.52*
adiponectin secretion ([2]; LPS 100 ng/ml): failed to induce adiponectin secretion

CC(=O)Oc1ccccc1C(=O)O [Aspirin]
adiponectin secretion ([2]; LPS 100 ng/ml): failed to induce adiponectin secretion

Cc1c(C)c2c(c(C)c1O)CCC(C)(COc1ccc(CC3SC(=O)NC3=O)cc1)O2 (stereo not shown) [Troglitazone]
maximum increase of adiponectin secretion over TNFα control [3]: 51%
% Stimulation of adiponectin secretion (maximum) [2]: 15%

CC(C)CCC1=C(O)C(C(=O)C(C)C)=C(O)C(CCC(C)C)(CCC(C)C)C1=O [Hexahydro colupulone]
lipogenic/adipogenic response [4]: failed to elicit a lipogenic response

C[C@]12C=CC(=O)C=C1CC[C@@H]1[C@@H]2[C@@H](O)C[C@@]2(C)[C@H]1CC[C@]2(O)C(=O)CO [prednisolone]
reduction of serum IL-6 levels [5]: reached a statistical significance

COc1cc(O)c(CC=C(C)C)c(O)c1C(=O)/C=C/c1ccc(O)cc1 [xanthohumol]
lipogenic/adipogenic response [4]: comparable to indomethacin and troglitazone
IL-6 secretion [6]: Significant decreases in IL-6 secretion

CN(C)C(=N)N=C(N)N [metformin]
serum glucose relative to the controls [7]: decreased
serum insulin relative to the controls [7]: decreased

CC(C)CCC1=C(O)C(C(=O)C(C)C)=C(O)C(CCC(C)C)(CCC(C)C)C1=O [Hexahydrocolupulone (HHCL)]
Adiponectin/IL-6 [8]: 0.60#

Beta acids
lipogenic/adipogenic response [4]: comparable to indomethacin and troglitazone
Percent PGE2 Inhibition [9]: 83%

CCc1ccc(CCOc2ccc(CC3SC(=O)NC3=O)cc2)nc1 (stereo not shown) [Pioglitazone]
maximum increase of adiponectin secretion over TNFα control [3]: 80%
Adiponectin Index (maximum) ([3]; Test/TNFα control): 1.47
IL-6 Index [1]: 0.37*
% Stimulation of adiponectin secretion (maximum) [2]: 12%

COc1ccc2c(c1)c(CC(=O)O)c(C)n2C(=O)c1ccc(Cl)cc1 [Indomethacin]
% Inhibition of IL-6 secretion (maximum) [1]: 53* %
lipogenic/adipogenic response [4]: induced lipogenesis to a similar extent
stimulation of adiponectin secretion ([2]; LPS 100 ng/ml, […]): 9%
% Stimulation of adiponectin secretion (maximum) [2]: 9%
